Data reported in patent US20090048292A1, “SYNERGISTIC COMBINATION” (priority 2007, published 2009).
Where “and” joins values, the source holds several entries; their conditions need not be identical. Identical values can stand only once.

Key:
[1] = system: human SK-Mel28 melanoma cells; assay: Different angiogenesis inhibitors as monotherapy in human melanoma model SK-Mel28 (FIG. 1); format: in vivo; settings: daily treatment from tumor size 20-30 mm^2; ZK261991 orally 50 mg/kg per day
Procedure: Human SK-MeI 28 melanoma cells were cultivated in RPMI1640 medium together with 1% glucose and 10% foetal calf serum. 3 million cells per animal have been transferred to NMRI nu/nu nude mice in a volume of 0,1 ml in a 1:1 mixture consisting of media and matri gel. With achieving the tumor size of about 20 mm^2, in this case on day 3, the treatment of the animals has been started.
In a human melanoma model SK-Mel28 different angiogenesis inhibitors have been tested. […] In this experiment the tumor have been daily treated with different compounds beginning after establishment of the tumors, respectively at a size of 20-30 mm^2. The compound ZK261991 was orally applied in a dosage of 50 mg/kg per day and in a volume of 0.1 ml/10 g body weight, as a 5% DMSO/Ethanol 1:1 mixture in 0.085 Myrj85®/0.9% NaCl formulation. ZK222584 (PTK/ZK, Vatalanib) comprised in the same formulation was applied. Further Bay43-9006 (Nexavar®) in 30% hydroxy propyl cyclodextrine (HP-β-CD), pH 5.0 in the same volume of 0.1 ml/10 g body weight was applied. […] However, no reaction could be determined with a dosage of 5 and 10 mg/kg (s. FIG. 2). The tumors have been treated in a daily manner with different MS-275 dosages, beginning with the set up at a size of ca. 20-30 mm^2. MS-275 was applied in 30% hydroxypropyl cyclodextrine (HP-β-CD), pH5.0, in a volume of 0.1 ml/10 g body weight.

[2] = system: Human SK-MeI 28 melanoma cells; assay: Combination study of ZK 261991 and MS-275 in human SK-Mel 28 melanoma model in NMRI nu/nu nude mice (tumor area, tumor weight); format: in vivo; settings: for Tumor area on day 57, average: group average; for Tumor area of the single studied groups on day 57: single animals
Procedure: For this, the animals have been randomized and separated into the following test group (8 animals per group, each):
MS-275; 10 mg/kg/day 3. […] Untreated control (these animals received the solution solvent, only)
The compounds are orally daily applied via a probang till the end of the experiment on day 57. The tumor size was determined (length×width) after 6-7 days. On day 57, the animals were sacrificed by breaking the neck and the tumors were isolated. The weight of the tumors was determined. The tumor size (tumor area in mm^2) was inserted into a diagram, as function of the time. An average of the tumor weight of each group was calculated, as well as the variation and was inserted into a diagram. In the same time interval the tumor size was determined, also the body weight was determined by balancing. The data were inserted in a diagram as function of the time.
The tumors were treated in a daily manner with the different compounds beginning with the establishment, at a size of ca. 20.30 mm^2. […] For the calculation of the statistically signification the SigmaStat-programm with the One-Way-ANOVA-analysis was used.
For the calculation of the statistically significance the SigmaStat-program with a One-Way-ANOVA-analysis was used.

[3] = day 57, ZK261991 50 mg/kg/day, MS-275 10 mg/kg/day, oral daily, alone or combined

SMILES: CNC(=O)c1cc(Oc2ccc(NC(=O)Nc3ccc(Cl)c(C(F)(F)F)c3)cc2)ccn1 [Bay43-9006]
- inhibitory effect onto the tumor growth, FIG. 1 [1]: No inhibitory effect

SMILES: Nc1ccccc1NC(=O)c1ccc(CNC(=O)OCc2cccnc2)cc1 [MS-275, 3-pyridylmethyl-N-{4-[(2-amino-phenyl)-carbamoyl]benzyl}carbamate]
- reduction of the tumor weight in comparison to the untreated control (percentage of inhibition) [2, 3]: 0%
- Tumor area on day 57, average ([2]; MS-275 10 mg/kg/day oral daily, day 57): 135.7 mm^2
- Tumor area of the single studied groups on day 57 ([2]; MS-275 10 mg/kg/day oral daily, day 57, 10 mg/kg/day): 132.1 mm^2 and 169.1 mm^2 and 142.9 mm^2 and 128.6 mm^2 and 169.2 mm^2 and 104.2 mm^2 and 112.1 mm^2 and 127.2 mm^2

SMILES: Clc1ccc(Nc2nnc(Cc3ccncc3)c3ccccc23)cc1 [ZK222584, Vatalanib]
- inhibitory effect onto the tumor growth, FIG. 1 [1]: No inhibitory effect

SMILES: CN(C)C(=O)Nc1cc(CNc2ccccc2C(=O)Nc2ccc3cn(C)nc3c2)ccn1 [ZK 261991, N′2′-{[2-(3,3-Dimethylureido)pyridine-4-yl]methyl}-N-(2-methyl-2H-indazol-6-yl)Anthranilamid]
- inhibitory effect onto the tumor growth, FIG. 1 [1]: No inhibitory effect
- reaction of tumor growth (tumor area) to treatment, FIG. 3 ([2]; daily oral treatment, ZK261991 50 mg/kg/day, MS-275 10 mg/kg, alone or combined, One-Way-ANOVA): statistically significant but moderate result
- T/C value (tumor weight) [2, 3]: 0.55
- reduction of the tumor weight in comparison to the untreated control (percentage of inhibition) [2, 3]: 45%
- Tumor area on day 57, average ([2]; ZK 261991 50 mg/kg/day oral daily, day 57): 104.7 mm^2
- Tumor area of the single studied groups on day 57 ([2]; ZK 261991 50 mg/kg/day oral daily, day 57, 50 mg/kg/day): 109.5 mm^2 and 100.1 mm^2 (2×) and 105.0 mm^2 and 118.8 mm^2 and 88.8 mm^2 and 116.3 mm^2 and 98.9 mm^2
